Measurements reported in ChEMBL document CHEMBL1147628, “Identification of novel potent bicyclic peptide deformylase inhibitors” (Bioorg Med Chem Lett, 2004).

Target: T1, Peptide deformylase (Staphylococcus aureus subsp. aureus Mu50, UniProt P68825)
T1 sequence (P68825 whole entry): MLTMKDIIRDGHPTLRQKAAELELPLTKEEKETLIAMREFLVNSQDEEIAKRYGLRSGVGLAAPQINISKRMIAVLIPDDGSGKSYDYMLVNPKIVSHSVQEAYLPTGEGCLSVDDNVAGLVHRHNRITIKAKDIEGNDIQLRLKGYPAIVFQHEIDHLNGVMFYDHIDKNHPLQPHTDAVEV
Test: Inhibitory activity towards Ni-peptide deformylase of Staphylococcus aureus

Compound: O=C(CC1Sc2ccccc2N(Cc2ccccc2)C1=O)NO (stereo not given)
- IC50: 12 nM

Compound: O=C(CC1Sc2ccccc2N(CC2CCCCO2)C1=O)NO (stereo not given)
- IC50: 18 nM

Compound: CONC(=O)CC1Sc2ccccc2NC1=O (stereo not given)
- IC50: 74 nM

Compound: O=C(O)CC1Sc2ccccc2NC1=O (stereo not given)
- IC50: > 2000 nM

Compound: O=C(CC1Sc2ccccc2NC1=O)NO (stereo not given)
- IC50: < 5 nM

Compound: O=C(CC1Sc2ccccc2N(CC(=O)Nc2ccccn2)C1=O)NO (stereo not given)
- IC50: 343 nM

Compound: COCCN1C(=O)C(CC(=O)NO)Sc2ccccc21 (stereo not given)
- IC50: < 5 nM

Compound: O=C(CC1Sc2ccccc2N(CCC2CCCCC2)C1=O)NO (stereo not given)
- IC50: 57 nM

Compound: CC(C)CCCN1C(=O)C(CC(=O)NO)Sc2ccccc21 (stereo not given)
- IC50: < 5 nM

Compound: O=C(CC1C(=O)Nc2ccccc2S1(=O)=O)NO (stereo not given)
- IC50: > 2000 nM

Compound: CCCCC[C@H](CC(=O)NO)C(=O)N[C@H](C(=O)N1CCC[C@H]1CO)C(C)C [ACTINONIN]
- IC50: < 5 nM

Compound: NNC(=O)CC1Sc2ccccc2NC1=O (stereo not given)
- IC50: 330 nM

Compound: CN1C(=O)C(CC(=O)NO)Sc2ccccc21 (stereo not given)
- IC50: 37 nM

Compound: O=C(CC1Cc2ccccc2N(CC2CC2)C1=O)NO (stereo not given)
- IC50: 175 nM

Compound: CC(C)CCN1C(=O)C(CC(=O)NO)Sc2ccccc21 (stereo not given)
- IC50: < 5 nM

Compound: O=C(CC1Sc2ccccc2N(CC2CCC2)C1=O)NO (stereo not given)
- IC50: 41 nM

Compound: O=C(CC1Sc2ccccc2N(CCC2OCCO2)C1=O)NO (stereo not given)
- IC50: < 5 nM

Compound: CON(C)C(=O)CC1Sc2ccccc2NC1=O (stereo not given)
- IC50: > 2000 nM

Compound: CCCCCN1C(=O)C(CC(=O)NO)Sc2ccccc21 (stereo not given)
- IC50: < 5 nM

Compound: O=C(CC1Sc2ccccc2N(CC(=O)N2CCCC2)C1=O)NO (stereo not given)
- IC50: 397 nM

Compound: O=C(CC1Sc2ccccc2N(CCc2ccccc2)C1=O)NO (stereo not given)
- IC50: < 5 nM

Compound: O=C(CC1Sc2ccccc2N(CC(=O)Nc2cc(F)ccc2F)C1=O)NO (stereo not given)
- IC50: 58 nM

Compound: CC(C)(C)C(=O)CN1C(=O)C(CC(=O)NO)Sc2ccccc21 (stereo not given)
- IC50: 50 nM

Compound: N#CCN1C(=O)C(CC(=O)NO)Sc2ccccc21 (stereo not given)
- IC50: 515 nM

Compound: O=C1Nc2ccccc2SC1CNO (stereo not given)
- IC50: > 2000 nM
